According to patent US20240101548A1, “HYDROXAMATE COMPOUND, PREPARATION METHOD THEREFOR AND APPLICATION THEREOF” (SHENZHEN CHIPSCREEN BIOSCIENCES CO., LTD., priority 2020, published 2024):
Read-outs that look alike come from different tables or passages of the source.

Legend:
Type in all cases: cell-based, human
[1] = system: IL-2-induced JAK1/JAK3 signal pathway; assay: IL-2-induced proliferation of KHYG-1 cells (JAK1/JAK3 signal); details: KHYG-1 cell proliferation, IL-2 10 ng/mL, 72 hours, read-out: Inhibition activity IC50 on IL-2-induced JAK1/JAK3 signal pathway
Method in brief: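 KHYG-1 NK lymphoma cells were cultured with IL-2 and test compound at various doses for 72 h at 37 °C and 5% CO2, and proliferation was read with alamarBlue fluorescence. Inhibition was normalized to wells without compound or cytokine (0%) and IL-2 wells without compound (100%), and C50 was derived from the dose-inhibition data.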

[2] = system: EPO-induced JAK2 signal pathway; assay: EPO-induced proliferation of UT-7 cells (JAK2 signal); details: UT-7 cell proliferation, EPO 10 ng/mL, 72 hours, read-out: Inhibition activity IC50 on EPO-induced JAK2 signal pathway
Method in brief: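 UT-7 cells (15000/well) stimulated with 10 ng/mL human recombinant EPO plus compound at final 0, 100, 1000 or 10000 nM, 72 h at 37° C., 5% CO2. Proliferation by alamarBlue fluorescence (Ex530/Em590); inhibition normalised to no-cytokine/no-compound (0) and EPO-only (100) wells, […] derived from dose-inhibition.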

[3] = system: IL-10-induced JAK1/TYK2 signal pathway; assay: IL-10-induced JAK1/TYK2 signal pathway STAT3-Luc reporter gene assay in U2OS cells; details: U2OS cells, STAT3-Luc reporter, IL-10 10 ng/mL, read-out: Half inhibition dose (IC50) on IL-10-induced JAK1/TYK2 signal pathway
Method in brief: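 U2OS cells co-transfected with IL-10R1-EGFP and STAT3-luciferase reporter plasmids; after 24 h, compound added (0–300 nM) for 6 h before 10 ng/mL human IL-10, then 24 h culture. Luciferase signal normalised to GFP for transfection efficiency; IC50 from inhibition rates.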

SMILES	IC50 ([1]; Homo sapiens) [µM]	IC50 ([2]; Homo sapiens, UT7) [µM]	IC50 ([3]; Homo sapiens, U2OS) [nM]	IC50 ([3]; Homo sapiens) [nM]	IC50 [1] [µM]	IC50 [2] [µM]	IC50 [3] [nM]
CCONC(=O)c1cnc(Nc2ncc(C)s2)cc1Nc1ccc(C2CC2)cc1N(C)S(C)(=O)=O [Example 156, 4-((4-cyclopropyl-2-(N-methylmethanesulfonamido)phenyl)amino)-N-ethoxy-6-((5-methylthiazol-2-yl)amino)nicotinamide]	> 10	> 10	1	–	–	–	–
CONC(=O)c1cnc(NC(=O)C2CC2)cc1Nc1ccc(F)cc1N(C)S(C)(=O)=O [Example 70, 6-(cyclopropylcarboxamido)-4-((4-fluoro-2-(N-methylmethanesulfonamido)phenyl)amino)-N-methoxy nicotinamide]	> 10	> 10	–	2.44	–	–	–
CCONC(=O)c1cnc(Nc2cccc(F)n2)cc1Nc1ccc(C2CC2)cc1N(C)S(C)(=O)=O [Example 22, 4-((4-cyclopropyl-2-(N-methylmethanesulfonamido)phenyl)amino)-N-ethoxy-6-((6-fluoropyridin-2-yl)amino)nicotinamide]	> 10	> 10	0.57	–	–	–	–
CONC(=O)c1cnc(NC(=O)C2CC2)cc1Nc1cccc(-c2ccn(C)n2)c1OC [Example 29, 6-(cyclopropylcarboxamido)-N-methoxy-4-((2-methoxy-3-(1-methyl-1H-pyrazol-3-yl)phenyl)amino)nicotinamide]	> 10	> 10	2.33	–	–	–	–
CCONC(=O)c1cnc(NC(=O)C2CC2)cc1Nc1cc(F)c(C2CC2)cc1N(C)S(C)(=O)=O [Example 97, 6-(cyclopropylcarboxamido)-4-((4-cyclopropyl-5-fluoro-2-(N-methylmethanesulfonamido)phenyl)amino)-N-ethoxy nicotinamide]	> 10	> 10	1.33	–	–	–	–
C#Cc1ccc(Nc2cc(Nc3cc(C)nc(C)n3)ncc2C(=O)NOCC)c(N(C)S(C)(=O)=O)c1 [Example 127, 6-((2,6-dimethylpyrimidin-4-yl)amino)-N-ethoxy-4-((4-ethynyl-2-(N-methylmethanesulfonamido)phenyl)amino)nicotinamide]	> 10	> 10	0.776	–	–	–	–
CONC(=O)c1cnc(Nc2cccc(F)n2)cc1Nc1ccc(C2CC2)cc1N(C)S(C)(=O)=O [Example 14, 4-((4-cyclopropyl-2-(N-methylmethanesulfonamido)phenyl)amino)-6-((6-fluoropyridin-2-yl)amino)-N-methoxy nicotinamide]	> 10	> 10	0.874	–	–	–	–
CCONC(=O)c1cnc(Nc2cc(C)nc(C)n2)cc1Nc1ccc(C)cc1N(C)S(=O)(=O)C1CC1 [Example 175]	> 10	> 10	0.839	–	–	–	–
CCONC(=O)c1cnc(Nc2ccn(C)n2)cc1Nc1ccc(C2CC2)cc1N(C)S(C)(=O)=O [Example 160, 4-((4-cyclopropyl-2-(N-methylmethanesulfonamido)phenyl)amino)-N-ethoxy-6-((1-methyl-1H-pyrazol-3-yl)amino)nicotinamide]	> 10	> 10	0.442	–	–	–	–
CONC(=O)c1cnc(Nc2cccc(F)n2)cc1Nc1cccnc1N(C)S(C)(=O)=O [Example 36, 6-((6-fluoropyridin-2-yl)amino)-N-methoxy-4-((2-(N-methylmethanesulfonamido)pyridin-3-yl)amino)nicotinamide]	> 10	> 10	0.686	–	–	–	–
CNC(=O)c1cnc(Nc2ccc(F)cn2)cc1Nc1ccccc1N(C)S(C)(=O)=O [Example 100, 6-((5-fluoropyridin-2-yl)amino)-N-methyl-4-((2-(N-methylmethanesulfonamido)phenyl)amino)nicotinamide]	> 10	> 10	17	–	–	–	–
CCONC(=O)c1cnc(Nc2cc(C)nc(C)n2)cc1Nc1ccc(-c2ccnn2C)cc1OC [Example 207]	> 10	> 10	1.08	–	–	–	–
CONC(=O)c1cnc(NC(=O)C2CC2)cc1Nc1cccc(-n2cccn2)c1OC [Example 41, 6-(cyclopropylcarboxamido)-N-methoxy-4-((2-methoxy-3-(1H-pyrazol-1-yl)phenyl)amino)nicotinamide]	> 10	> 10	–	1.7	–	–	–
CCONC(=O)c1cnc(Nc2cnccn2)cc1Nc1ccc(N2CCOCC2)cc1N(C)S(C)(=O)=O [Example 136, N-ethoxy-4-((2-(N-methylmethanesulfonamido)-4-morpholinophenyl)amino)-6-(pyrazin-2-ylamino)nicotinamide]	> 10	> 10	2.49	–	–	–	–
CONC(=O)c1cnc(NC(=O)C2CC2)cc1Nc1ccc(C2CC2)cc1N(C)S(C)(=O)=O [Example 12, 6-(cyclopropylcarboxamido)-4-((4-cyclopropyl-2-(N-methylmethanesulfonamido)phenyl)amino)-N-methoxy nicotinamide]	> 10	> 10	–	0.961	–	–	–
Cc1cc(Nc2cc(Nc3ccc(C4CC4)cc3N(C)S(C)(=O)=O)c(C(=O)NOCC(F)(F)F)cn2)nc(C)n1 [Example 118]	> 10	> 10	1.28	–	–	–	–
CCONC(=O)c1cnc(Nc2cc(C)nc(C)n2)cc1Nc1ccc(OC(C)C)cc1N(C)S(C)(=O)=O [Example 178, 6-((2,6-dimethylpyrimidin-4-yl)amino)-N-ethoxy-4-((4-isopropoxy-2-(N-methylmethanesulfonamido)phenyl)amino)nicotinamide]	> 10	> 10	1.28	–	–	–	–
CONC(=O)c1cnc(Nc2ccc(OC)cn2)cc1Nc1ccc(C)cc1N(C)S(C)(=O)=O [Example 108]	> 10	> 10	1.87	–	–	–	–
CONC(=O)c1cnc(Nc2ccc(F)cn2)cc1Nc1ccc(OCC2CC2)cc1N(C)S(C)(=O)=O [Example 61, 4-((4-(cyclopropylmethoxy)-2-(N-methylmethanesulfonamido)phenyl)amino)-6-((5-fluoropyridin-2-yl)amino)-N-methoxy nicotinamide]	> 10	> 10	1.7	–	–	–	–
CCONC(=O)c1cnc(Nc2cc(C)nc(C)n2)cc1Nc1cccc(-c2ncn(C)n2)c1OC [Example 268, 6-((2,6-dimethylpyrimidin-4-yl)amino)-N-ethoxy-4-((2-methoxy-3-(1-methyl-1H-1,2,4-triazol-3-yl)phenyl)amino)nicotinamide]	> 10	> 10	0.315	–	–	–	–
CONC(=O)c1cnc(Nc2cccc(F)n2)cc1Nc1ccc(C)cc1N(C)S(C)(=O)=O [Example 106, 6-((6-fluoropyridin-2-yl)amino)-N-methoxy-4-((4-methyl-2-(N-methylmethanesulfonamido)phenyl)amino)nicotinamide]	> 10	> 10	1.81	–	–	–	–
CCONC(=O)c1cnc(Nc2cc(C)nc(C)n2)cc1Nc1ccc(OC)cc1N(C)S(=O)(=O)C1CC1 [Example 174, 6-((2,6-dimethylpyrimidin-4-yl)amino)-N-ethoxy-4-((4-methoxy-2-(N-methylcyclopropylsulfonamido)phenyl)amino)nicotinamide]	> 10	> 10	0.784	–	–	–	–
CCONC(=O)c1cnc(Nc2cc(C)c(F)cn2)cc1Nc1ccc(C2CC2)cc1N(C)S(C)(=O)=O [Example 125, 4-((4-cyclopropyl-2-(N-methylmethanesulfonamido)phenyl)amino)-N-ethoxy-6-((5-fluoro-4-methylpyridin-2-yl)amino)nicotinamide]	> 10	> 10	0.946	–	–	–	–
CCONC(=O)c1cnc(Nc2ccc(C3CC3)cn2)cc1Nc1ccc(OC)cc1N(C)S(C)(=O)=O [Example 155, 6-((5-cyclopropylpyridin-2-yl)amino)-N-ethoxy-4-((4-methoxy-2-(N-methylmethanesulfonamido)phenyl)amino)nicotinamide]	> 10	> 10	1.79	–	–	–	–
CONC(=O)c1cnc(Nc2ccc(F)cn2)cc1Nc1ccc(Cl)cc1N(C)S(C)(=O)=O [Example 80, 4-((4-chloro-2-(N-methylmethanesulfonamido)phenyl)amino)-6-((5-fluoropyridin-2-yl)amino)-N-methoxy nicotinamide]	–	–	–	–	> 10	> 10	0.961
CCONC(=O)c1cnc(Nc2cnc(F)c(C)c2)cc1Nc1ccc(C2CC2)cc1N(C)S(C)(=O)=O [Example 235, 4-((4-cyclopropyl-2-(N-methylmethanesulfonamido)phenyl)amino)-N-ethoxy-6-((6-fluoro-5-methylpyridin-3-yl)amino)nicotinamide]	> 10	> 10	0.722	–	–	–	–
